Test results: ChEMBL document CHEMBL3616425, “Factors influencing the cytotoxicity of α-methylene-γ-hydroxy esters against pancreatic cancer” (2015)

Key:
Type in all cases: functional
[1] = Cytotoxicity against human MIAPaCa2 cells assessed as cell growth at 10 uM after 72 hrs by Cell Titer 96 cell proliferation assay relative to control; settings: MIA PaCa-2, 72 h, read-out: Activity
[2] = Cytotoxicity against human BxPC3 cells assessed as cell growth at 10 uM after 72 hrs by Cell Titer 96 cell proliferation assay relative to control; settings: BXPC-3, 72 h, read-out: Activity
[3] = Cytotoxicity against human PANC1 cells assessed as cell growth at 10 uM after 72 hrs by Cell Titer 96 cell proliferation assay relative to control; settings: PANC-1, 72 h, read-out: Activity

Row | SMILES | growth at 10 µM [1] | growth at 10 µM [2] | growth at 10 µM [3]
1 | C=C(C(=O)OC)C(O)c1ccc(F)cc1 (stereo not given) | 118% | 137% | 136%
2 | C=C(C(=O)OC)C(O)c1ccc(C(F)(F)F)cc1 (stereo not given) | 27% | 69% | 93%
3 | C=C(C(=O)OC)C(O)c1ccccc1 (stereo not given) | 119% | 129% | 118%
4 | C=C(C(=O)OC)C(O)c1ccc([N+](=O)[O-])cc1 (stereo not given) | 98% | 123% | 138%
5 | C=C(C(=O)OC)C(C)CO (stereo not given) | 124% | 126% | 120%
6 | C=C(C(=O)OC)C(CO)C1CCCCC1 (stereo not given) | 98% | 86% | 164%
7 | C=C(C(=O)OC)C(CO)c1ccccc1 (stereo not given) | 29% | 60% | 102%
8 | C=C(CC(O)c1ccccc1)C(=O)OC (stereo not given) | 14% | 1% | 67%
9 | C=C(C(=O)OCC)C(O)c1ccc(OC)cc1 (stereo not given) | 110% | 130% | 108%
10 | C=C(C(=O)OC)C(O)c1ccc(C#N)cc1 (stereo not given) | 94% | 126% | 131%
11 | C=C(C(=O)OC)C(O)c1cccc(F)c1 (stereo not given) | 129% | 134% | 166%
12 | C=C(C(=O)OC)C(O)c1ccccc1F (stereo not given) | 128% | 137% | 157%
13 | C=C(C(=O)OC)C(O)c1c(F)c(F)c(F)c(F)c1F (stereo not given) | 111% | 117% | 147%
14 | C=C(C(=O)OC)C(O)c1ccccc1C(F)(F)F (stereo not given) | 127% | 142% | 169%
15 | C=C1C(=O)OC1c1ccc(C#N)cc1 (stereo not given) | 99% | 116% | 102%
16 | C=C1C(=O)OC1c1ccc([N+](=O)[O-])cc1 (stereo not given) | 123% | 133% | 136%
17 | C=C(C(=O)O)C(O)c1ccccc1 (stereo not given) | 94% | 110% | 127%
18 | C=C(C(=O)O)C(O)c1ccc(OC)cc1 (stereo not given) | 106% | 110% | 125%
19 | C=C(C(=O)O)C(O)c1ccc(C#N)cc1 (stereo not given) | 92% | 114% | 108%
20 | C=C(C(=O)O)C(O)c1ccc([N+](=O)[O-])cc1 (stereo not given) | 130% | 124% | 134%

Row | SMILES | growth at 10 µM [1] | growth at 10 µM [2] | growth at 10 µM [3]
21 | C=C(C(=O)O)C(O)c1ccc(C(F)(F)F)cc1 (stereo not given) | 119% | 121% | 129%
22 | C=C1C(=O)O[C@@H]2C3O[C@]3(C)CC/C=C(\C)CC[C@@H]12 (stereo not given in full) | 11% | 12% | 22%
23 | C=C1C(=O)O[C@H](c2ccccc2)[C@@H]1c1ccccc1 (relative stereo) | 9% | 3% | 12%
24 | C=C(C(=O)OC)[C@@H](c1ccccc1)[C@H](O)c1ccccc1 (relative stereo) | 9% | 2% | 14%
25 | C=C(C(=O)OC)[C@@H](C)[C@@H](C)O (relative stereo) | 147% | 122% | 110%
26 | C=C(C(=O)OC)[C@@H](C1CCCCC1)[C@@H](C)O (relative stereo) | 77% | 120% | 145%
27 | C=C(C(=O)OC)[C@@H](C)[C@H](O)c1ccccc1 (relative stereo) | 32% | 49% | 91%
28 | C=C(C(=O)OC)[C@@H](CCC)[C@H](O)c1ccccc1 (relative stereo) | 32% | 38% | 104%
29 | C=C(C(=O)OC)[C@@H](c1ccccc1)[C@@H](C)O (relative stereo) | 24% | 27% | 96%
30 | C=C(C(=O)OC)[C@@H](c1ccccc1)[C@H](O)C1CCCCC1 (relative stereo) | 29% | 23% | 83%
31 | C=C(C(=O)OC)[C@@H](c1ccccc1)[C@H](O)CCC (relative stereo) | 16% | 8% | 33%
32 | C=C(C(=O)OC)[C@@H](c1ccccc1)[C@H](O)Cc1ccccc1 (relative stereo) | 16% | 6% | 14%
33 | C=C(C(=O)OC)[C@@H](c1ccccc1)[C@H](OC)c1ccccc1 (relative stereo) | 102% | 94% | 123%
34 | C=C(C(=O)OC)[C@@H](c1ccccc1)[C@H](O[Si](C)(C)C(C)(C)C)c1ccccc1 (relative stereo) | 110% | 117% | 135%
35 | C=C(C(=O)OCC)[C@@H](c1ccccc1)[C@H](O)c1ccccc1 (relative stereo) | 13% | 3% | 5%
36 | C=C(C(=O)OCc1ccccc1)[C@@H](c1ccccc1)[C@H](O)c1ccccc1 (relative stereo) | 12% | 2% | 6%
37 | C=C(C(=O)Oc1ccccc1)[C@@H](c1ccccc1)[C@H](O)c1ccccc1 (relative stereo) | 8% | 1% | 9%
38 | C=C(C(C)=O)[C@@H](c1ccccc1)[C@H](O)c1ccccc1 (relative stereo) | 53% | 104% | 105%
39 | C=C(C[C@@H](c1ccccc1)[C@H](O)c1ccccc1)C(=O)OC (relative stereo) | 59% | 129% | 124%
40 | O=C1O[C@H](c2ccccc2)[C@H](c2ccccc2)/C1=C\c1ccccc1 (relative stereo) | 87% | 117% | 105%
